US20250346633A1, “MACOLACINS AND METHODS OF USE THEREOF” (priority 2021, published 2025)
≈ marks a conversion by molar mass, not a printed value. Where two headings read alike, the source gives them in different places. Bridge positions count the residues as written; N and C are the ends. Square brackets hold non-standard residues; d marks the D form. Peptide text beside a SMILES is read from it. * marks the point of attachment. Benzoyl(4-Ph) = O=C(c1ccc(-c2ccccc2)cc1)*; X1 = CC[C@H](C)CCCCC(=O)*; Dab = NCC[C@H](N)C(=O)O

Legend:
[1] = test system: A. baumannii SM1536 (pMQ124xlab1-mcr-1)
A. baumannii SM1536 = conditions: colistin S
[2] = test system: E. cloacae ATCC13047 (ΔphoP/Q)
Method: (§1) MIC assays were conducted following the protocol recommended by the Clinical and Laboratory Standards Institute (Testing E C et al., 2016, EUCAST: Växjö; Wikler M A et al., 2006, CLSI (NCCLS), 26: M7-A7). […] Polymyxin B sulfate (Sigma, USA) and colistin sulfate (Sigma, USA) were used as positive controls. […] The top and bottom rows of each plate were filled with 100 μL of LB broth without compound to avoid edge effects. The last well in each row was treated as a negative control. It contained bacteria but no test compounds. A single colony of each assayed bacterial strain was inoculated into 5 mL of LB broth medium and grown overnight at 37° C. […] Saturated overnight cultures were diluted 5,000-fold in fresh LB, and then 50 μL was transferred into individual wells of a 96-well plate.

K. pneumoniae ATCC13883 = conditions: colistin S, mcr-1 engineered pair
S. aureus SH1000 = conditions: colistin R, n=2
A. baumannii ATCC17978 [3] = test system: A. baumannii ATCC17978
[4] = test system: K. pneumoniae ATCC13883 (pMQ124-mcr-1)
[5] = test system: K. pneumoniae 0497 (mcr-1 clinical isolate); conditions: colistin R
K. pneumoniae 10031 = conditions: colistin S, n=2
E. cloacae 0150 = conditions: colistin S, n=2
P. aeruginosa PA01 = conditions: colistin S, n=2
E. faecium Com15 = conditions: colistin R, n=2
[6] = test system: E. cloacae ATCC13047 (ΔphoP/Q + phoP/Q); conditions: colistin R
Method: as §1

[7] = test system: S. typhimurium 0635 (mcr-1 clinical isolate); conditions: colistin R
[8] = test system: A. baumannii ATCC17978 (pMQ124xlab1-mcr-1)
A. baumannii ATCC17978 [9] = experiment: CHIR-090 inhibition assay (growth curves); assay type: cell-based, Acinetobacter baumannii; conditions: for A. baumannii growth: antibiotic alone at concentrations above MIC; for A. baumannii growth / A. baumannii growth with CHIR-090 included: 48 hours; for A. baumannii growth with CHIR-090 included: antibiotic plus CHIR-090
[10] = test system: K. pneumoniae and A. baumannii; experiment: MIC upon addition of cell wall components (lipid A, LPS) to the media; assay type: cell-based, Klebsiella pneumoniae; Acinetobacter baumannii; conditions: FIG. 3C; n=2
[11] = test system: A. baumannii 0295 with mcr-1; conditions: colistin R
A. baumannii 0282 = conditions: mcr-1 −, colistin S
A. baumannii 0296 = conditions: mcr-1 −, colistin S
A. baumannii 0286 = conditions: mcr-1 −, colistin S
[12] = Pharmacokinetics assessment; conditions: mice; single subcutaneous dose of 10 mg/kg; FIG. 9
Method: (§2) Six-week old CD-1 female mice (20-25 g) were used in pharmacokinetic studies. […] Aliquots of 20 μL of blood were taken by puncture of the lateral tail vein from each mouse (n=2 per route and dose) at 30 minutes, 1, 3, and 5 hours post-dose and captured in CB300 blood collection tubes containing K2EDTA and stored on ice. Plasma was recovered after centrifugation and stored at −80° C. until analyzed by high pressure liquid chromatography coupled to tandem mass spectrometry. […] Standards and QCs were created by adding 10 μL of spiking solutions to 90 μL of drug free plasma (CD-1 K2EDTA Mouse, Bioreclamation IVT). 10 μL of control, standard, QC, or study samples were added to 10 μL of internal standard. […] The compounds were extracted by adding 100 μL of 50% Methanol/50% (10% Trichloroacetic acid in water) precipitation solvent. Extracts were vortexed for 5 minutes and centrifuged at 4,000 rpm for 5 minutes. 75 μL of supernatant was transferred for HPLC-MS/MS analysis and diluted with 75 μL of Milli-Q deionized water. LC-MS/MS analysis was performed on a Sciex Applied Biosystems Qtrap 6500+triple-quadrupole mass spectrometer coupled to a Shimadzu Nexera×2 UHPLC system to quantify each drug in plasma. […] Multiple-reaction monitoring of parent/daughter transitions in electrospray positive-ionization mode was used to quantify the analytes. […]

[13] = test system: A. baumannii SM1536-(mcr-1); experiment: Neutropenic thigh infection model; assay type: in vivo, Acinetobacter baumannii; conditions: neutropenic mouse thigh, 20 mg/kg SC at 6 hour intervals, 24 h
Method: (§3) After 24 hours the bacterial burden in each infected thigh was determined based on colony forming units (CFUs) that arose from homogenized tissue samples.
(§4) Six-week old female outbred Swiss Webster mice (20-25 g) were used for this experiment. Mice were housed in individually ventilated cages (IVC) and maintained in accordance with American Association for Accreditation of Laboratory Care criteria. Acinetobacter baumannii SM1536-(mcr-1) or A. baumannii-0301-(mcr-1) was grown in cation adjusted Mueller Hinton (MH) broth containing 50 μg/mL of gentamycin at 37° C. with shaking overnight. The cultures were centrifuged, supernatant aspirated and the bacteria were gently washed twice in sterile saline. […] All mice were closely monitored post-infection for morbidity. Any abnormal clinical signs were recorded if observed. […] The treatment efficacy was determined both as the bacterial burden reduction in the thighs relative to the vehicle and colistin treated controls. All graphic data are expressed as columnar average data points by group and were statistically analyzed using computer Prism software (Prism 9). Burden differences between testing and control groups was assessed by post-hoc analysis, using the Mann-Whitney comparison test. […]

A. baumannii 0295 = conditions: mcr-1 −, colistin S
[14] = test system: A. baumannii 0287 with mcr-1; conditions: colistin R
MTT cytotoxicity assay = assay type: cell-based; conditions: HEK293, human cells
Method: Compounds with different concentrations were then added into each well. After 48 h of incubation, the media was removed and MTT solution (0.45 mg/mL) was added into each well. After 3 h of incubation, the solution was aspirated. […] The absorbance of each well was measured at OD570nm using a microplate reader (Epoch Microplate Spectrophotometer, BioTek). Taxol was used as the positive control. […] All the experiments were performed triplicates (n=3).

A. baumannii 0287 = conditions: mcr-1 −, colistin S
[15] = test system: A. baumannii-0301-(mcr-1); experiment: Neutropenic thigh infection model; assay type: in vivo, Acinetobacter baumannii; conditions: neutropenic mouse thigh, 20 mg/kg SC at 6 hour intervals, 24 h
Method: as §3, §4

[16] = test system: A. baumannii 0301 with mcr-1; conditions: colistin R
Gram−positive pathogens = experiment: MIC against ESKAPE pathogens; assay type: cell-based; conditions: highest concentration tested 128 μg/mL
[17] = test system: K. pneumoniae and A. baumannii transformed with a plasmid expressing mcr-1; assay type: cell-based, Klebsiella pneumoniae; Acinetobacter baumannii
[18] = test system: CRAB, as well as a panel of XDR A. baumannii clinical isolates; conditions: CRAB and XDR A. baumannii clinical isolates, even when transformed with mcr-1
Method: MIC assays were conducted following the protocol recommended by the Clinical and Laboratory Standards Institute (Testing E C et al., 2016, EUCAST: Växjö; Wikler M A et al., 2006, CLSI (NCCLS), 26: M7-A7). […] Polymyxin B sulfate (Sigma, USA) and colistin sulfate (Sigma, USA) were used as positive controls. […] The top and bottom rows of each plate were filled with 100 μL of LB broth without compound to avoid edge effects. The last well in each row was treated as a negative control. It contained bacteria but no test compounds. A single colony of each assayed bacterial strain was inoculated into 5 mL of LB broth medium and grown overnight at 37° C. (200 rpm). For assays using bacteria containing mcr-1 expression plasmids, the appropriate selection antibiotic was added to keep the plasmid stable (concentrations are listed in Table 5). Saturated overnight cultures were diluted 5,000-fold in fresh LB, and then 50 μL was transferred into individual wells of a 96-well plate.

[19] = mouse, in vivo, sc, 10 mg/kg
Method: as §2

[20] = A. baumannii SM1536 (pMQ124xlab1-mcr-1), colistin R
[21] = A. baumannii ATCC17978, colistin S, mcr-1 engineered pair
[22] = extremely highly colistin resistant A. baumannii

Compound	MIC [1, 20]	MIC (A. baumannii SM1536)	MIC [2]	MIC (K. pneumoniae ATCC13883)	MIC (S. aureus SH1000)	MIC (A. baumannii ATCC17978 [3]; [21])	MIC [5]	MIC (K. pneumoniae 10031)	MIC (E. cloacae 0150)	MIC (P. aeruginosa PA01)	MIC (E. faecium Com15)	MIC [6]	MIC [7]	MIC [8]	MIC [1, 22]	change of MIC on addition of lipid A or lipopolysaccharide (LPS) to the assay media [10]	A. baumannii growth (A. baumannii ATCC17978 [9])	A. baumannii growth with CHIR-090 included (A. baumannii ATCC17978 [9])	Antibiotic MIC [16]	Antibiotic MIC (A. baumannii 0301; 0301)	other results
Polymyxin B	128 µg/mL	1 µg/mL	1 µg/mL	1 µg/mL	>128 µg/mL	0.5 µg/mL	32 µg/mL	1 µg/mL	1 µg/mL	2 µg/mL	>128 µg/mL	32 µg/mL	16 µg/mL	16 µg/mL	–	–	–	–	–	–	MIC (A. baumannii ATCC17978 [3]): 0.5 µg/mL; MIC [4]: 128 µg/mL; MIC ([6]; listed as polymyxin B): resistant
C[C@@H](O)[C@H](NC(=O)c1ccc(C#Cc2ccc(CN3CCOCC3)cc2)cc1)C(=O)NO [CHIR-090]	–	–	–	–	–	–	–	–	–	–	–	–	–	–	–	–	–	–	–	–	A. baumannii growth, CHIR-090 alone (A. baumannii ATCC17978 [9]; CHIR-090 alone): did not inhibit A. baumannii growth
CC[C@H](C)CCCCC(=O)N[C@@H](CCN)C(=O)N[C@H](C(=O)N[C@@H](CCN)C(=O)N[C@H]1CCNC(=O)[C@H]([C@@H](C)O)NC(=O)[C@H](CCN)NC(=O)[C@H](CCN)NC(=O)[C@H](CC(C)C)NC(=O)[C@@H](CC(C)C)NC(=O)[C@H](CCN)NC1=O)[C@@H](C)O [Colistin, colistin] (X1-[Dab]T[Dab][Dab][Dab][dL]L[Dab][Dab]T; lactam 4-C)	128 µg/mL (≈ 109 µM)	0.5 µg/mL (≈ 0.428 µM)	1 µg/mL (≈ 0.855 µM)	1 µg/mL (≈ 0.855 µM)	>128 µg/mL	1 µg/mL (≈ 0.855 µM)	32 µg/mL (≈ 27.4 µM)	0.5 µg/mL (≈ 0.428 µM)	1 µg/mL (≈ 0.855 µM)	1 µg/mL (≈ 0.855 µM)	>128 µg/mL	32 µg/mL (≈ 27.4 µM)	16 µg/mL (≈ 13.7 µM)	–	> 128 µg/mL	significant increase	completely abrogated A. baumannii growth	rescued A. baumannii growth	>128 µg/mL	–	Antibiotic MIC [11]: >128 µg/mL; Antibiotic MIC (A. baumannii 0282): 0.5 µg/mL; Antibiotic MIC (A. baumannii 0296): 0.25 µg/mL; Antibiotic MIC (A. baumannii 0286): 1 µg/mL; plasma drug exposure (pharmacokinetic profile) [12]: parity in plasma drug exposure; bacterial burden in infected thighs [13]: did not reduce the bacterial burden below the level of the initial infection; Antibiotic MIC (A. baumannii 0295): 0.25 µg/mL; MIC ([4]; ATCC13883): 64 µg/mL (≈ 54.7 µM); Antibiotic MIC [14]: 64 µg/mL; Antibiotic MIC (A. baumannii 0301; A. baumannii 0301, mcr-1 −, colistin S): 0.25 µg/mL; IC50 at 48 h (MTT cytotoxicity assay): > 512 µg/mL; Antibiotic MIC (A. baumannii 0287): 0.5 µg/mL; bacterial burden in infected thighs [15]: did not reduce the bacterial burden below the level of the initial infection; Antibiotic MIC ([16]; listed as colistin): > 64 µg/mL; MIC ([6]; listed as colistin): resistant; MIC ([8]; ATCC17978): 32 µg/mL (≈ 27.4 µM)
CC[C@H](C)CCCCC(=O)N[C@@H](CCN)C(=O)N[C@H](C(=O)N[C@H](CO)C(=O)N[C@H]1CCNC(=O)[C@H](CC(C)C)NC(=O)[C@H](CCN)NC(=O)[C@H](CCN)NC(=O)[C@H]([C@@H](C)CC)NC(=O)[C@@H](CC(C)C)NC(=O)[C@H](CCN)NC1=O)[C@@H](C)O [Macolacin] (X1-[Dab]T[dS][Dab][Dab][dL]I[Dab][Dab]L; lactam 4-C)	–	–	–	–	–	–	–	–	–	–	–	2 µg/mL (≈ 1.71 µM)	–	2 µg/mL (≈ 1.71 µM)	8 µg/mL (≈ 6.85 µM)	significant increase	completely abrogated A. baumannii growth	rescued A. baumannii growth	–	0.5 µg/mL	activity against Gram−positive pathogens (Gram−positive pathogens): no activity; increase in MIC upon mcr-1 expression [17]: 2- to 4 fold
CC[C@H](C)[C@@H]1NC(=O)[C@@H](CC(C)C)NC(=O)[C@H](CCN)NC(=O)[C@@H](NC(=O)[C@@H](CO)NC(=O)[C@@H](NC(=O)[C@H](CCN)NC(=O)c2ccc(-c3ccccc3)cc2)[C@@H](C)O)CCNC(=O)[C@H](CC(C)C)NC(=O)[C@H](CCN)NC(=O)[C@H](CCN)NC1=O [Biphenyl-macolacin] ({Benzoyl(4-Ph)}-[Dab]T[dS][Dab][Dab][dL]I[Dab][Dab]L; lactam 4-C)	–	–	–	–	–	–	–	–	–	–	–	–	–	–	–	–	–	–	1 µg/mL	0.5 µg/mL	MIC (Proteus vulgaris): 4 µg/mL (≈ 3.31 µM); MICs [18]: < 2 µg/mL; Antibiotic MIC ([16]; listed as biphenyl-macolacin): < 2 µg/mL; plasma drug exposure (pharmacokinetic profile) [19]: parity in plasma drug exposure
